# Assay results published in PubChem BioAssay AID449764 (Southern Research Specialized Biocontainment Screening …, 2010).
# pIC50: −log10 of the molar value.
# Tested on: Mycobacterium tuberculosis H37Rv growth inhibition, no glycerol
# Assay: Mycobacterium tuberculosis H37Rv growth inhibition, no glycerol, confirmatory dose response (AID 449764);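 note: growth read after 7 days of incubation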
# Details: for IC90: measured here: IC90 growth inhibition
SMILES,pIC50,IC90
Cc1cc2c(ccc3c2no[n+]3[O-])nn1,4.76,22.8 µM
C[CH2][Hg][S]c1ccccc1C(=O)O,6.28,1.26 µM
CCOc1cccc(/C=C/c2ccc3cccc(O)c3n2)c1O,5.37,> 100 µM
CC(C)(C)C(=O)N1CCN(c2ccc(NC(=O)c3ccc([N+](=O)[O-])o3)cc2)CC1,> 6.70,1.93 µM
O=C(Oc1ccc2ccccc2c1)c1cncc(Br)c1,4.26,> 100 µM
O=C(/C=C/c1cn(-c2ccccc2)nc1-c1cccnc1)c1ccco1,4.40,54.8 µM
CN(C)[C@@H]1C(=O)C(C(N)=O)=C(O)[C@@]2(O)C(=O)C3=C(O)c4c(O)cccc4[C@@](C)(O)C3C[C@@H]12 (stereo partly drawn),5.01,27.4 µM
COc1cccc(NC(=S)/C(=C(\[O-])c2cc(C)n(-c3ccccc3F)c2C)[n+]2ccc(N(C)C)cc2)c1,4.15,90.3 µM
O=C(CN1CCCCC1)Nc1nnc(-c2ccc([N+](=O)[O-])cc2)s1,4.35,69.6 µM
c1ccc2c(c1)CCN(c1nc3cc4c(cc3s1)OCCO4)C2,4.46,55 µM
CCOC(=O)c1sc2nc3n(c(=O)c2c1C)CCC(C)CC3 (stereo not drawn),4.64,26.4 µM
CN(Cc1ccc(Br)cc1)C(=O)CCN1C(=O)c2cccc([N+](=O)[O-])c2C1=O,4.01,> 100 µM
Cc1[nH]c2ccccc2c1/C=N/Nc1nc(Nc2ccccc2)nc(N2CCOCC2)n1,5.18,13.6 µM
COC(=O)c1c(NC(=S)NN2CCN(C)CC2)sc2c1CCC(C)C2 (stereo not drawn),4.64,26.6 µM
OC(COC(c1ccc(Cl)cc1)c1ccc(Cl)cc1)CN1CCc2ccccc2C1 (stereo not drawn),4.68,27.6 µM
CC(Oc1ccc(F)cc1)C(=O)Nc1sc2c(c1C(=O)NCc1cccnc1)CCCC2 (stereo not drawn),4.36,86 µM
COC(=O)CSc1nnc(-c2sc3cc(OC)ccc3c2Cl)n1C,4.45,> 50 µM
Cc1cc2nc(/N=C(\N)NC(=O)C(C)C)nc(C)c2cc1C,4.74,> 100 µM
Clc1ccc(Nc2ccc(-n3ccnc3)nn2)cc1Cl,4.66,24.8 µM
Nc1ccc(N=Nc2ccccc2)c2cccnc12,4.46,64.2 µM
Cc1ccc(-n2nc3c(N4CCC(C(=O)NCc5ccccc5C)CC4)nnc(C)c3c2C)cc1,4.14,> 100 µM
CCCN(CCC)CCNC(=O)c1cc2c(-c3ccc(Cl)cc3)nn(C)c2s1,4.62,27.1 µM
O=C1C(SCCO)=C(SCCO)C(=O)c2ccccc21,4.95,12 µM
Oc1ccc(F)c2cccnc12,5.23,6.56 µM
Cc1cccc(-c2ncc(CN3CCC(CO)(CCCc4ccccc4)CC3)cn2)c1,4.31,55.1 µM
CCCC[C@@H](CN[C@H](C)CNC)NCC1CCC(C(C)(C)C)CC1 (stereo partly drawn),4.63,26.4 µM
O=[N+]([O-])c1ccc(CN2CCN(c3ccc(Cl)cc3)CC2)o1,6.36,> 100 µM
CC1=NNC(=O)/C1=C\c1cn(-c2ccccc2)nc1-c1ccc(Cl)cc1,4.34,48.8 µM
CC(C)Cn1c([N+](=O)[O-])nc2c1c(=O)[nH]c(=O)n2C,5.01,14.5 µM
